{"source": "patent US9545386B2", "about": "“Methods of treating infectious diseases” (SLIPPERY ROCK UNIVERSITY FOUNDATION, INC., priority 2007, dated 2017)", "key": {"[1]": {"tested_on": "Haemonchus contortus infective larvae", "experiment": "In vitro bioassay of infective larvae, immobilization and lethal doses (eosin, Probit)", "assay_type": "cell-based", "details": "for 24 hr ID50 ± 95% confidence intervals / 48 hr ID50 ± 95% confidence intervals: immobilize 50%; for 24 hr ID50 ± 95% confidence intervals / 24 hr ID90 ± 95% confidence intervals / 24 hr LD50 ± 95% confidence intervals / 24 hr LD90 ± 95% confidence intervals: 24 hr in vitro; for 48 hr ID50 ± 95% confidence intervals / 48 hr ID90 ± 95% confidence intervals / 48 hr LD50 ± 95% confidence intervals / 48 hr LD90 ± 95% confidence intervals: 48 hr in vitro; for 24 hr ID90 ± 95% confidence intervals / 48 hr ID90 ± 95% confidence intervals: immobilize 90%; for 24 hr LD50 ± 95% confidence intervals / 48 hr LD50 ± 95% confidence intervals: kill 50%; for 24 hr LD90 ± 95% confidence intervals / 48 hr LD90 ± 95% confidence intervals: kill 90%", "description": "(§1) Strongyloides stercoralis infective larvae were harvested from charcoal coprocultures in nematode saline solution. The larvae were supplied by the Parasitology Laboratory, Department of Pathobiology, University of Pennsylvania. The strain of larvae was a human strain of the parasitic nematode that had been maintained for over ten years in canines by daily prednisolone treatment (2 mg/kg per os, once daily. Parastrongyloides trichosuri and Ancylostoma caninum infective larvae were also supplied by the same source as for S. stercoralis. Haemonchus contortus infective larvae were harvested from charcoal coprocultures in nematode saline solution prepared from infected sheep feces obtained from Merck Parasites Laboratory.\n(§2) The 24 hr 50% and 90% immobilization doses (ID50 and ID90), and 50% and 90% lethal doses (LD50 and LD90) of eryngial (mg/ml) were investigated in vitro using infective larvae of all four parasitic nematodes. Each species was exposed to a range of eryngial dilutions by adding known volumes of a homogeneous ‘wormy’ solution (infective larvae in nematode saline solution) to known volumes of an eryngial stock suspension (10 mg/ml of nematode saline solution). Each dilution, including the control (0 mg/ml eryngial), was prepared in triplicate and also contained eosin (0.01%, w/v), which was used as an indicator of mortality, and Triton X-100 (1.0%, v/v).\n(§3) Using S. stercoralis, P. trichosuri, H. contortus and A. caninum infective larvae, eryngial dilutions, excluding the controls, ranged from 0.05 to 1.15 mg/ml; 0.01 to 1.0 mg/ml; 0.5 to 2.0 mg/ml; and 0.8 to 3.0 mg/ml, respectively. Sub-sample (10 μl) counts of larvae that were mobile, immobile but not stained and stained, were done at the start of each bioassay and at 24 hr intervals for two days. Each sub-sample contained approximately 50 infective larvae.\n(§4) The 48-hr immobilization doses (ID50 and ID90) and lethal doses (LD50 and LD90) of eryngial and ivermectin also were investigated, using S. stercoralis and H. contortus infective larvae. Each bioassay was conducted as described hereinabove. Using S. stercoralis and H. contortus infective larvae, ivermectin dilutions (not including the controls) ranged from 0.03 to 0.3 mg/ml and from 0.009 to 0.1 mg/ml, respectively.\n(§5) Probit analysis was used to determine 24 hr and 48 hr immobilization and lethal doses for eryngial and ivermectin, respectively."}, "[2]": {"tested_on": "Strongyloides stercoralis infective larvae", "experiment": "In vitro bioassay of infective larvae, immobilization and lethal doses (eosin, Probit)", "assay_type": "cell-based", "details": "for 24 hr ID50 ± 95% confidence intervals / 48 hr ID50 ± 95% confidence intervals: immobilize 50%; for 24 hr ID50 ± 95% confidence intervals / 24 hr ID90 ± 95% confidence intervals / 24 hr LD50 ± 95% confidence intervals / 24 hr LD90 ± 95% confidence intervals: 24 hr in vitro; for 48 hr ID50 ± 95% confidence intervals / 48 hr ID90 ± 95% confidence intervals / 48 hr LD50 ± 95% confidence intervals / 48 hr LD90 ± 95% confidence intervals: 48 hr in vitro; for 24 hr ID90 ± 95% confidence intervals / 48 hr ID90 ± 95% confidence intervals: immobilize 90%; for 24 hr LD50 ± 95% confidence intervals / 48 hr LD50 ± 95% confidence intervals: kill 50%; for 24 hr LD90 ± 95% confidence intervals / 48 hr LD90 ± 95% confidence intervals: kill 90%", "description": "as §1, §2, §3, §4, §5"}, "[3]": {"details": "H. contortus infective larvae, 48 hr, eryngial vs ivermectin"}, "[4]": {"details": "H. contortus infective larvae, listed as eryngial"}, "[5]": {"details": "S. stercoralis infective larvae"}, "[6]": {"details": "S. stercoralis infective larvae, listed as eryngial"}, "[7]": {"details": "S. stercoralis, eryngial vs ivermectin"}}}
{"smiles": "CCCCCCCCC/C=C/C=O", "note": "[Eryngial, trans-2-dodecenal]", "values": [{"measurement": "increase in the dose required to immobilize 50%", "setting": "[1]; 24 hr ID50, H. contortus relative to P. trichosuri", "result": 10.2, "unit": "fold"}, {"measurement": "times more effective than ivermectin at eliciting 90% mortality", "setting": "[1]; [3]", "result": 2.9, "unit": "times"}, {"measurement": "times more potent at killing 50% than ivermectin", "setting": "[1]; [3]", "result": 3.7, "unit": "times"}, {"measurement": "24 hr ID50 ± 95% confidence intervals", "setting": "[1]; H. contortus infective larvae", "result": "0.132 (0.078-0.186) mg/ml"}, {"measurement": "24 hr ID50 ± 95% confidence intervals", "setting": "[1]; [4]", "result": 0.132, "unit": "mg/mL"}, {"measurement": "48 hr ID50 ± 95% confidence intervals", "setting": "[1]; H. contortus infective larvae", "result": "0.313 (0.143-0.453) mg/ml"}, {"measurement": "48 hr ID50 ± 95% confidence intervals", "setting": "[1]; [4]", "result": 0.313, "unit": "mg/mL"}, {"measurement": "24 hr ID90 ± 95% confidence intervals", "setting": "[1]; H. contortus infective larvae", "result": "0.782 (0.641-0.998) mg/ml"}, {"measurement": "24 hr ID90 ± 95% confidence intervals", "setting": "[1]; [4]", "result": 0.782, "unit": "mg/mL"}, {"measurement": "48 hr ID90 ± 95% confidence intervals", "setting": "[1]; H. contortus infective larvae", "result": "0.761 (0.530-1.488) mg/ml"}, {"measurement": "48 hr ID90 ± 95% confidence intervals", "setting": "[1]; [4]", "result": 0.761, "unit": "mg/mL"}, {"measurement": "24 hr LD50 ± 95% confidence intervals", "setting": "[1]; H. contortus infective larvae", "result": "1.793 (1.516-2.558) mg/ml"}, {"measurement": "24 hr LD50 ± 95% confidence intervals", "setting": "[1]; [4]", "result": 1.793, "unit": "mg/mL"}, {"measurement": "48 hr LD50 ± 95% confidence intervals", "setting": "[1]; H. contortus infective larvae", "result": "1.361 (1.284-1.449) mg/ml"}, {"measurement": "48 hr LD50 ± 95% confidence intervals", "setting": "[1]; [4]", "result": 1.361, "unit": "mg/mL"}, {"measurement": "24 hr LD90 ± 95% confidence intervals", "setting": "[1]; H. contortus infective larvae", "result": "2.765 (2.010-5.915) mg/ml"}, {"measurement": "24 hr LD90 ± 95% confidence intervals", "setting": "[1]; [4]", "result": 2.765, "unit": "mg/mL"}, {"measurement": "48 hr LD90 ± 95% confidence intervals", "setting": "[1]; H. contortus infective larvae", "result": "2.360 (2.109-2.768) mg/ml"}, {"measurement": "48 hr LD90 ± 95% confidence intervals", "setting": "[1]; [4]", "result": 2.360, "unit": "mg/mL"}, {"measurement": "decrease in the 50% immobilization dose", "setting": "[2]; 24 hr ID50, S. stercoralis compared with A. caninum", "result": 9.4, "unit": "fold"}, {"measurement": "decrease in the 50% immobilization dose", "setting": "[2]; 24 hr ID50, S. stercoralis compared with H. contortus", "result": 2.3, "unit": "fold"}, {"measurement": "less sensitive to eryngial than P. trichosuri", "setting": "[2]; 24 hr ID50, S. stercoralis relative to P. trichosuri", "result": 4.5, "unit": "fold"}, {"measurement": "increased sensitivity to eryngial (90% immobilization)", "setting": "[2]; 24 hr ID90, S. stercoralis over A. caninum", "result": 10.7, "unit": "fold"}, {"measurement": "increase in sensitivity to eryngial (50% mortality doses)", "setting": "[2]; 24 hr LD50, S. stercoralis than A. caninum", "result": 7.2, "unit": "fold"}, {"measurement": "increase in sensitivity to eryngial (50% mortality doses)", "setting": "[2]; 24 hr LD50, S. stercoralis than H. contortus", "result": 21.1, "unit": "fold"}, {"measurement": "increased sensitivity to eryngial (90% mortality doses)", "setting": "[2]; 24 hr LD90, S. stercoralis over A. caninum", "result": 8.2, "unit": "fold"}, {"measurement": "increased sensitivity to eryngial (90% mortality doses)", "setting": "[2]; 24 hr LD90, S. stercoralis over H. contortus", "result": 19.3}, {"measurement": "times more effective than ivermectin (48 hr ID90)", "setting": "[2]; S. stercoralis L3 larvae, eryngial vs ivermectin", "result": 3.9, "unit": "times"}, {"measurement": "times more potent than ivermectin (48 hr ID50)", "setting": "[2]; S. stercoralis infective larvae, eryngial vs ivermectin", "result": 2.5, "unit": "times"}, {"measurement": "24 hr ID50 ± 95% confidence intervals", "setting": "[2]; [5]", "result": "0.058 (0.054-0.061) mg/ml"}, {"measurement": "24 hr ID50 ± 95% confidence intervals", "setting": "[2]; [6]", "result": 0.058, "unit": "mg/mL"}, {"measurement": "48 hr ID50 ± 95% confidence intervals", "setting": "[2]; [5]", "result": "0.054 (0.047-0.061) mg/ml"}, {"measurement": "48 hr ID50 ± 95% confidence intervals", "setting": "[2]; [6]", "result": 0.054, "unit": "mg/mL"}, {"measurement": "24 hr ID90 ± 95% confidence intervals", "setting": "[2]; [5]", "result": "0.081 (0.076-0.088) mg/ml"}, {"measurement": "24 hr ID90 ± 95% confidence intervals", "setting": "[2]; [6]", "result": 0.081, "unit": "mg/mL"}, {"measurement": "48 hr ID90 ± 95% confidence intervals", "setting": "[2]; [5]", "result": "0.077 (0.066-0.101) mg/ml"}, {"measurement": "48 hr ID90 ± 95% confidence intervals", "setting": "[2]; [6]", "result": 0.077, "unit": "mg/mL"}, {"measurement": "24 hr LD50 ± 95% confidence intervals", "setting": "[2]; [5]", "result": "0.085 (0.073-0.102) mg/ml"}, {"measurement": "24 hr LD50 ± 95% confidence intervals", "setting": "[2]; [6]", "result": 0.085, "unit": "mg/mL"}, {"measurement": "48 hr LD50 ± 95% confidence intervals", "setting": "[2]; [5]", "result": "0.069 (0.058-0.085) mg/ml"}, {"measurement": "48 hr LD50 ± 95% confidence intervals", "setting": "[2]; [6]", "result": 0.069, "unit": "mg/mL"}, {"measurement": "24 hr LD90 ± 95% confidence intervals", "setting": "[2]; [5]", "result": "0.143 (0.115-0.245) mg/ml"}, {"measurement": "24 hr LD90 ± 95% confidence intervals", "setting": "[2]; [6]", "result": 0.143, "unit": "mg/mL"}, {"measurement": "48 hr LD90 ± 95% confidence intervals", "setting": "[2]; [5]", "result": "0.105 (0.085-0.174) mg/ml"}, {"measurement": "48 hr LD90 ± 95% confidence intervals", "setting": "[2]; [6]", "result": 0.105, "unit": "mg/mL"}, {"measurement": "times more effective than ivermectin (48 hr LD50)", "setting": "[2]; [7]", "result": 4.4, "unit": "times"}, {"measurement": "times more potent than ivermectin (48 hr LD90)", "setting": "[2]; [7]", "result": 9.9, "unit": "times"}]}
